Literature values, collected in US20200078478A1, “Structural molecule of peptide derivative for PSMA-targeting radiotherapy diagnosis and treatment” (priority 2018, published 2020).

Details: Lu-177 labeled, clinical treatment

half-life: 10.8 h
SMILES: O=C(O)CC[C@H](NC(=O)N[C@@H](CCCCNC(=O)[C@H](Cc1ccc2ccccc2c1)NC(=O)[C@H]1CC[C@H](CNC(=O)CN2CCN(CC(=O)O)CCN(CC(=O)O)CCN(CC(=O)O)CC2)CC1)C(=O)O)C(=O)O [PSMA-617]
